The experiment has as its system Splenocyte. Briefly: Inhibition of IL5 production in mouse splenocyte model of allergic inflammation at 10 ug/ml. Type of experiment: functional.

As usually defined, the inhibition is the change of the read-out against control, counted positive when it falls. Low readings indicate little suppression, high ones strong suppression. Consider `CC[C@@H](O)[C@@H](C)/C=C(C)/C=C/c1oc(=O)c(C)c(O)c1C` [SALINIPYRONE A], for which the inhibition at 10 µg/mL stood at 50%.
